Assay results reported in patent publication US20110008302A1, “Compositions and methods for immortalizing cells and screening for anti-cancer agents” (priority 2007, published 2011).

How the values were obtained:
MEFs [1] = assay: Senescence of MEFs after Ndy1 siRNA (cell counting, β-galactosidase staining); type: cell-based, mouse
Procedure: (§1) MEFs overexpressing Ndy1 or Ndy2 and MEFs in which Ndy1 was knocked down with siRNA (1433-[…]-1454, SEQ ID NO: 1), were monitored for senescence by light microscopy and β-galactosidase staining and by cell counting at each passage. Transfection of siRNA was carried out using Lipofectamine 2000 (Invitrogen; Carlsbad, Calif.). Knockdown of Ndy1 was confirmed by Western blotting and real time RTPCR.
MEFs transfected with Ndy1 (1433-[…]-1454) or control siRNA (Dharmacon; Chicago, Ill.) were plated in triplicate at 10^5 cells per well in 6 well dishes, and three days later they were counted, re-transfected and replated at 10^5 cells per well. At day 6, cells were photographed, counted and stained for the β-galactosidase (Pierce #9860; Rockford, Ill.). β-galactosidase staining of the cells infected with the retroviral constructs and the siRNA-treated cells was performed using X-gal and a β-galactosidase staining kit (Pierce #9860).
To determine whether endogenous Ndy1 is a physiological regulator of senescence, passage 3 wild type MEFs and passage-8 MEFs overexpressing Ndy1 were transfected with Ndy1 or control siRNA. […] The transfected cells were passaged twice, and cell proliferation was monitored by counting the cells at each passage. Cell morphology and β-galactosidase staining were recorded after the second passage (FIG. 10 panel B, FIG. 10 panel C and FIG. 10 panel D). […]

MEFs [2] = assay: FGF-2-induced proliferation and migration of MEFs (MTT, transwell filter, wound healing); type: cell-based, mouse
From the text: FGF-2 stimulation induces both proliferation and migration in various cell types. To determine the role of Ndy1 in FGF-2-driven proliferation and migration, FGF-2 was used to stimulate serum-starved MEFs which were transfected with control RNA, siRNA for Ndy1, miR-101 or with siRNA for Ndy1+miR-101.
To determine cell number, the 3-[4,5-dimethylthiazol-2-yl]-2,5-[…] bromide (MTT, Invitrogen, catalog number M6494) assay was used as described in Polytarchou, C et al., 2005 J. Biol. Chem. 280: 40428-35. Cells were seeded at 2×10^4 cells/well in 24-well tissue culture plates. Twenty-four hours later, cells were serum-starved in medium without FBS for 16 h. Culture medium was replaced with fresh medium containing FGF-2 or control carrier, and the number of cells was determined. Results were confirmed by direct counting of cells under the microscope, using a standard hemocytometer.
Migration assays were performed using 24-well microchemotaxis chambers (Costar) with uncoated polycarbonate membranes (pore size 8 μm). Briefly, cells were harvested and resuspended at 5×10^4 cells/0.15 ml in DMEM containing 0.25% BSA. The bottom chamber of each transwell unit contained 0.6 ml of DMEM supplemented with 0.25% BSA and FGF-2 (20 ng/ml) or carrier as a control. The plates were incubated for 6 h at 37° C. and the filters were fixed with 4% paraformaldehyde in PBS and stained with 0.1% crystal violet solution. The cells that migrated through the filter were counted using a grid and an Optech microscope at 20× magnification.
To assay wound healing, cells were plated on 6-well plates, incubated in DMEM containing 10% FBS until confluence and were serum starved for 16 hours. Wounds were introduced to the confluent cell monolayer with a plastic pipette tip. Wells were washed three times to remove floating cells, and were cultured in DMEM without FBS, in the presence or absence of FGF-2 (20 ng/ml). Twelve and twenty four hours later, the wound area was photographed using a Nikon Phase Contrast-2 ELWD 0.3 Diaphot TMD inverted microscope with a 10× objective and a Spot charge-coupled-device camera (Diagnostic Instruments).

[3] = tested on: TCCSUP, WIDR, SKOV3, T24, NCI522; assay: Ndy1 siRNA in cancer cell lines expressing high levels of FGF-2; type: cell-based, human; conditions: five of eight high FGF-2 cell lines, 48 hours after transfection
Procedure: RNAs were transfected with Lipofectamine 2000 (Invitrogen, catalog number 11668-027) in MEFs and DharmaFect 3 (Dharmacon, catalog number T-2003-03) in cancer cell lines, according to the manufacturers' instructions (80 nM final concentration).
These eight high FGF-2 expressing cell lines were then transfected with siRNA for Ndy1 or a control siRNA. Nuclear extracts of these cells, collected 48 hours after the transfection, were probed with antibodies specific for each of Ndy1, Ezh2 and CREB. RNA isolated from these cells was analyzed by real time RT-PCR for abundance of microRNA miR-101. […] The five cell lines were obtained from patients having each of transitional cell carcinoma, lung cancer, colon cancer, ovarian cancer, and bladder cancer.

Ndy1 = assay: siRNA knock down in MEFs (Western blot, real time PCR of p16Ink4a, p19Arf, Ezh2, miR-101); type: cell-based, mouse
Procedure: At a time point four days after transfection cells were analyzed by Western blotting and total mRNA was collected and analyzed by real-time PCR with primers specific for p16^Ink4a and p19^Arf and primers specific for the long and short forms of Ndy1. (n=3)*p<0.05
as §1
For siRNA. MEFs transfected with Ndy1 (1433-[…]-1454; SEQ ID NO: 51) or control siRNA (Dharmacon) were plated at 10^5 cells per 6 cm dish and 3-4 days later were harvested and analyzed (Pfau, R., et al. (2008) Proc Natl Acad Sci USA 105, 1907-12, incorporated herein by reference in its entirety). MEFs were transfected with the help of Lipofectamine 2000 (Invitrogen). To specifically knock down the short form of Ndy1 the following siRNA were used: 5′-[…]-′3 (SEQ ID NO: 52) which specifically targets the exon1 of the v2 isoform of Ndy1 (NM_013910). siRNAs for Ezh2 (a mix of two siRNAs form Applied Biosystems, #AM16708 siID #157427 and #157426) and Bmi-1 (Santa Cruz Biotechnologies, # sc-29815) were used in a final concentration of 80 nM.

MEFs [4] = assay: Stimulation of serum-starved MEFs with growth factors or serum (Ezh2, Ndy1, miR-101 levels); type: cell-based, mouse
Procedure: MEFs were transfected with control siRNA and stimulated with serum (10%) for 1, 4, 12 and 18 hours. (upper) Nuclear extracts were probed with antibody specific for Ezh2 and for CREB, levels of which served as loading control. (lower) Ndy1 and Ezh2 mRNA levels were measured with real time RT-PCR; GAPDH mRNA levels were used as internal control. Data are expressed as mean±SD.
Serum starved MEFs were stimulated with each of FGF-2 (20 ng/ml), IGF-1 (20 ng/ml), PDGF (20 ng/ml), serum (10%), VEGF (20 ng/ml), EGF (20 ng/ml) or TNFα (50 ng/ml). Nuclear extracts were probed with antibody specific for Ezh2 and for CREB, levels of which served as loading control.
Data are expressed as mean±SD.
MEFs transfected with control siRNA were stimulated with FGF-2 for 1, 4, 12 or 18 hours. (upper) Nuclear extracts were probed with antibody specific for Ezh2. CREB levels served as loading control. (middle) Ndy1 and Ezh2 mRNA were measured with real time RT-PCR; GAPDH mRNA levels were used as internal control. Data are expressed as mean±SD. (lower) miR-101 levels were measured with real time RT-PCR; U6 small nuclear RNA levels were used as internal control. Data are expressed as mean±SD.
For stimulation with FGF-2 (Cell signalling, catalog number 8910), IGF-1 (R&D Systems, catalog number 791-MG), PDGF (Cell signalling, catalog number 9909), VEGF (R&D systems, catalog number 493-MV), EGF (R&D systems, catalog number 236-EG), TNFα (Cell Signalling, catalog number 2169), cells were serum starved for 16 hours and growth factors were added at a final concentration of 20 ng/ml each, for 24 hours.
To identify a pathway regulating Ezh2 expression via the Ndy1/miR-101 axis, serum-starved MEFs were stimulated with FGF-2, IGF-1, PDGF, EGF, VEGF, TNFα or serum and were examined for expression of Ezh2, Ndy1 and miR-101 before and 24 hours after stimulation. […] This was confirmed with analyses in which FGF-2 was used to stimulate serum-starved MEFs transfected with a control siRNA or siRNA for Ndy1 (FIG. 36).

[5] = tested on: Human Umbilical cord Vein Endothelial Cells; assay: In vitro tube formation assay; type: cell-based; conditions: HUVECs, FGF-2 20 ng/ml, 6 h
Procedure: HUVECs were transduced with a myc.Ezh2 expression construct, or with the empty vector (EV) and were subsequently transduced with either shRNA for Ndy1 or with a lentiviral-based control shRNA. (upper-first row) Tube formation on Cultrex-RGF-BME without FGF-2. (upper-second row) Tube formation on Cultrex-RGF-BME in the presence of 20 ng/ml FGF-2. (upper-third row) Tube formation on reduced-growth factor-Matrigel in the presence of 5 μM of the angiogenesis inhibitor sulphoraphane. (lower) Quantitation of tube formation was performed with the Angioquant software. Relative tube formation was calculated as the ratio of total capillary tube length in cells with or without FGF-2 normalized to total capillary tube length of EV cells without FGF-2 and set to 1 for total capillary tube length of EV cells without FGF-2. Data are expressed as mean±SD.
HUVECs were then transduced with a pBabe-based retrovirus construct of myc-Ezh2. Cells transduced with the empty pBabe vector (EV) were used as a negative control. […]
The in vitro tube formation assay was performed using the In Vitro Angiogenesis Assay Kit (Trevigen, catalog number 3470-096-K). […] After 6 h of incubation at 37° C., the medium was removed, the cells were fixed and stained with Calcein AM, and the total length of capillary tubes was measured in the total area of the wells using image analysis software (Angioquant). […]

[6] = MEFs cultured under standard conditions
[7] = serum-starved MEFs transfected with control RNA
[8] = MEFs transfected with control siRNA, FGF-2 for 1, 4, 12 or 18 hours
[9] = serum-starved MEFs, 24 hours after stimulation

1433-GUGGACUCACCUUACCGAAUU-1454 [Ndy1 siRNA]
senescence (MEFs [1]): promote senescence
FGF-2 driven proliferation (MEFs [2]; MEFs overexpressing myc.Ezh2): no effect
directional and random FGF-2 driven cell motility (MEFs [2]; MEFs overexpressing myc.Ezh2): remained unaffected
FGF-2-induced Ezh2 upregulation (MEFs [2]; MEFs, 48 hour time point under FGF-2): sufficient to block
FGF-2 effect on proliferation and migration (MEFs [2]; serum-starved MEFs stimulated with FGF-2): greatly limited
Ezh2 [3]: downregulated
expression of miR-101 [3]: upregulating
expression of Ezh2 (Ndy1; [6]): down-regulates, slightly
expression of miR-101 (Ndy1; [6]): does not affect
p16Ink4a (Western blot) (Ndy1; passage 2 MEFs, transient knock down, 4 days): relatively slight upregulation
increase of expression of p16Ink4a (Ndy1; passage 3 MEFs, four days after transfection): about 2.3 times
expression of Ezh2 (Ndy1; passage 3 MEFs, four days after transfection (FIG. 17 panel B)): decreases
endogenous and exogenous Ndy1 (Western blotting) (Ndy1; passage 3 wild type MEFs and passage-8 MEFs overexpressing Ndy1): downregulation
serum-stimulated Ezh2 upregulation (MEFs [4]; MEFs transfected with siRNA for Ndy1, serum stimulation): not affected

FGF-2: Fibroblast growth factor-2 (FGF-2) or basic fibroblast growth factor
directional and random migration (MEFs [2]; [7]): increase
proliferation rate (MEFs [2]; [7]): increase
total length of the capillary tubes formed [5]: increase
Ezh2 (MEFs [4]; [8]): upregulates
Ndy1 (MEFs [4]; [8]): upregulates
miR-101 (MEFs [4]; [8]): down-regulates
expression of Ndy1 (MEFs [4]; [9]): promoted
level at which Ezh2 expression is induced (MEFs [4]; [9]): primarily at the protein level
miR-101 (MEFs [4]; [9]): downregulating
Ezh2 expression (MEFs [4]; serum-starved MEFs, 24 hours after stimulation, 20 ng/ml (serum 10%)): significantly upregulated
